According to PMC6815936, “A Pan-Cyclophilin Inhibitor, CRV431, Decreases Fibrosis and Tumor Development in Chronic Liver Disease Models” (The Journal of Pharmacology and Experimental Therapeutics, 2019):

System: CCl4-induced liver fibrosis in C57BL/6 mice
Assay: Carbon tetrachloride mouse model of liver fibrosis
Type: in vivo
Details: OCA 10 mg/kg per day; combination 50 and 10 mg/kg per day, oral, 6 weeks
Procedure: Carbon tetrachloride (CCl4)–induced liver fibrosis was conducted in C57BL/6J male mice starting at 7 weeks of age. Mice were injected intraperitoneally twice per week with 0.5–0.75 ml/kg CCL4 (289116; Sigma-Aldrich) and corn oil (0.05 ml total dose per mouse) for 6 weeks. CRV431, obeticholic acid (OCA, HY-12222; MedChemExpress), and vehicle were administered by daily oral gavage for the entire duration of the study. CRV431 and OCA were dissolved in a self-microemulsifying drug vehicle ([Trepanier et al., 2018]), and then diluted with PBS. CRV431 was administered at 50 mg/kg per day, and OCA was administered at 10 mg/kg per day.
Blood and livers were collected at the end of the NASH and CCl4 studies. In some studies, serum or plasma was isolated from freshly-collected blood, whereas in other studies blood was frozen for later analysis of CRV431 concentration. Livers were immersion-fixed in zinc-formalin and paraffin-embedded for histologic processing. Liver sections were stained with hematoxylin and eosin for assessment of inflammation, ballooning, and steatosis, and with sirius red for assessment of collagen I and III (fibrosis). Sirius red staining was quantified by blinded analysis in one section per liver using ImageJ software. […]

## CC[C@H]1[C@@H](O)[C@@H]2[C@H](CC[C@]3(C)[C@@H]([C@H](C)CCC(=O)O)CC[C@@H]23)[C@@]2(C)CC[C@@H](O)C[C@@H]12 [OCA, obeticholic acid, reference compound]
  effect on liver fibrosis, sirius red staining (in words): no statistically significant effect
